Results reported in patent publication US20250282770A1, “BIOLUMINESCENT PROBES TO TRACK STEM CELLS IN VIVO” (THE BOARD OF TRUSTEES OF THE UNIVERSITY OF ILLINOIS, priority 2024, published 2025).

Legend:
[1] = target: T1, ALDH1A1 (Mus musculus, UniProt P24549); assay: Validation of ALDH-mediated activation of AlDeLuc in heterotopic breast cancer model via DEAB inhibition; type: in vivo, BALB/c mice; parameters: from tissue; host or cells: 4T1-Luc tumours in BALB/c mice
T1 sequence (P24549 1-501): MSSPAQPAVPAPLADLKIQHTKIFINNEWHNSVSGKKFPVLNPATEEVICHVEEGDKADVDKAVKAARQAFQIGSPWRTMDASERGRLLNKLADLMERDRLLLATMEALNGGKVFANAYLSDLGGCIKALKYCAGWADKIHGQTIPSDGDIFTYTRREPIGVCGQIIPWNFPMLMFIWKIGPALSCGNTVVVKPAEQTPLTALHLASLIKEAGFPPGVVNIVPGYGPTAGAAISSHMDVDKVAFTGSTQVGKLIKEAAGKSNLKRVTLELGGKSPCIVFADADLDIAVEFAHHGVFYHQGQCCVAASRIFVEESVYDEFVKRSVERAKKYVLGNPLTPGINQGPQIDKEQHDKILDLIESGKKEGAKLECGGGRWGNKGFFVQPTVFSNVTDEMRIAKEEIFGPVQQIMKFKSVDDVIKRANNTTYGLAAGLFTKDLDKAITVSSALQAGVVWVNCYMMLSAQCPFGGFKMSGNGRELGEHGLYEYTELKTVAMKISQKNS
Procedure: Validation of ALDH-mediated Activation of AlDeLuc in a Heterotopic Breast Cancer Model via DEAB Inhibition. BALB/c mice bearing 4T1-Luc tumors were anesthetized using isoflurane (1-3% for maintenance; up to 5% for induction) in oxygen from a precision vaporizer. After testing to ensure animals are fully under anesthesia, each mouse was administered AlDeLuc via retro-orbital injection (0.55 mg/kg, 1:19 v/v DMSO:PBS). Images were captured using the IVIS imaging system 40 minutes after injection. Bioluminescence light was captured in open mode (no filters were applied). ROIs were drawn around each tumor and summed for each animal. The signal intensity was quantified using the Living Image Analysis Software. After two days, the same animals were anesthetized and co-administered a solution of AlDeLuc and DEAB (0.55 mg/kg and 93 mg/kg respectively, 1:19 v/v DMSO:PBS). After the allotted 40 minutes, the images were captured using the IVIS imaging system. Bioluminescence was collected in open mode (no filters were applied). ROIS were drawn around each tumor and summed for each animal. The signal intensity was quantified using the Living Image Analysis Software.

[2] = target: T1, ALDH1A1; assay: DEAB inhibition of AlDeLuc activation in 4T1 cells; type: cell-based, murine; parameters: host or cells: 4T1 murine mammary carcinoma cells; conditions: DEAB 500 μM; AlDeLuc 100 μM; 4T1 lysates
Procedure: Validation of ALDH-Mediated Activation of AlDeLuc in Murine Breast Cancer Cells. 4T1 cells were cultured in T75 culture flasks. After two days, cells had become ˜90% confluent. An aliquot of RPMI 1640 media (1 mL) was removed from each flask and replaced with either DEAB ([…], 0.5% DMSO) or vehicle (0.5% DMSO). After incubation for one hour, the solutions were aspirated, washed with PBS, and resuspended in fresh RPMI 1640 media (9 mL). Each flask was then incubated with the AlDeLuc (100 μM) and DEAB (500 μM) or AlDeLuc (100 μM) and vehicle (DMSO), each with a final concentration of 1% DMSO. After 60 minutes, this solution was aspirated, washed with fresh PBS, and detached from the culture flasks. The cells were then transferred to a 15 mL centrifuge tube and pelleted at 1000 rpm for 5 minutes at room temp. The cells were resuspended in PBS along with 10% protease inhibitor solution (1 protease inhibitor mini tablet per 10 mL of PBS, Pierce, Thermo Fisher Scientific) and sonicated on ice for 2.5 minutes (pulse 01, 01, 40%). The cell debris was removed via centrifugation and the supernatant was plated ([…]) into a 96-well plate (n=4 for each condition). […] ROIs were drawn around each well and the signal intensity was quantified using the Living Image Analysis software.

[3] = system: ALDH1A1 activity in 4T1 cells; assay: Influence of interferon-gamma on ALDH1A1 activity in 4T1 cells using AlDeLuc; type: cell-based, murine; conditions: INF-γ 26.8 ng/mL, 12 hours; AlDeLuc 50 μM
Procedure: Influence of Interferon-gamma (INF-γ) on ALDH1A1 activity in 4T1 Cells Using AlDeLuc. 4T1 cells were cultured in T75 culture flasks. After two days, cells had become ˜90% confluent. An aliquot of RPMI 1640 was removed (26.8 μL) and the flasks were then treated with INF-γ (26.8 μL of […] stock in PBS, 26.8 ng/mL final conc.) or vehicle (26.8 μL PBS). After 12 hours, the solutions were aspirated, washed with PBS, and resuspended in fresh RPMI 1640 media (9 mL). AlDeLuc was added to each flask ([…], 5% v/v DMSO:PBS) for a final concentration of 0.5% DMSO per flask. After 60 minutes this solution was aspirated, washed with fresh PBS, and detached from the culture flasks. The cells were then transferred to a 15 mL centrifuge tube and pelleted at 1000 rpm for 5 minutes at room temp. The cells were resuspended in PBS along with 10% protease inhibitor solution (1 protease inhibitor mini tablet per 10 mL of PBS, Pierce, Thermo Fisher Scientific) and sonicated on ice for 2.5 minutes (pulse 01, 01, 40%). The cell debris was removed via centrifugation and the supernatant was plated (95 μL/well) into a 96-well plate (n=4 for each condition). Each well was treated with luciferase (5 μL, 1 mg/mL) and immediately imaged using the IVIS imaging system in open mode. ROIs were drawn around each well and the signal intensity was quantified using the Living Image Analysis software.

[4] = system: ALDH1A1 activity in 4T1 cells; assay: Effect of nitric oxide (DETA NONOate) on ALDH1A1 activity in 4T1 cells using AlDeLuc; type: cell-based, murine; conditions: DETA NONOate 50 μM, 2-day treatment; AlDeLuc 2 μM
Procedure: Exploring the Effect of Nitric Oxide on ALDH1A1 activity in 4T1 Cells Using AlDeLuc. 4T1 cells were cultured in T75 flasks, and once they reached ˜30% confluency (1 day), the media was removed and replaced with fresh RPMI 1640 media supplemented with either DETA NONOate (50 μM) or vehicle (media). After 24 hours, the media was aspirated, and the cells were treated once more with RPMI 1640 media containing either DETA NONOate (50 μM) or vehicle (media). After […], the suspension was removed and cells were treated with AlDeLuc (2 μM, final concentration of 0.01% DMSO). After 60 minutes the AlDeLuc solution was aspirated, washed with fresh PBS, and detached from the culture flasks. The cells were then transferred to a 15 mL centrifuge tube and pelleted at 1000 rpm for 5 minutes at room temp. The cells were resuspended in PBS along with 10% protease inhibitor solution (1 protease inhibitor mini tablet per 10 mL of PBS, Pierce, Thermo Fisher Scientific) and sonicated on ice for 2.5 minutes (pulse 01, 01, 40%). The cell debris was removed via centrifugation and the supernatant was plated (95 μL/well) into a 96-well plate (n=4 for each condition). Each well was treated with luciferase (5 μL, 1 mg/mL) and immediately imaged using the IVIS imaging system in open mode. ROIs were drawn around each well and the signal intensity was quantified using the Living Image Analysis software.

[5] = system: intracellular levels of NO; assay: Intracellular NO levels in 4T1-Luc cells with BL660NO probe; type: cell-based, murine; conditions: 30 minutes
Procedure: FIG. 14A-D. a) 4T1-Luc cells administered BL660NO (NO-responsive bioluminescent probe; 39 μM) after incubation with DEA-NONOate (50 μM) for 30 minutes. b) Quantified data from a. c) 4T1-Luc cells administered BL660NO (20 μM) after incubation with L-NMMA (1 mM) for 30 minutes. d) Quantified data from c. Statistical analysis was performed using two-tailed Student's t-test with Welch's correction (α=0.05), *ρ<0.05.

[6] = system: ALDH1A1 activity; assay: High-fat diet inflammatory model, orthotopic 4T1-Luc tumors, AlDeLuc imaging after L-NMMA; type: in vivo, BALB/c mice; conditions: L-NMMA 50 mg/kg oral gavage 20 days, AlDeLuc 0.55 mg/kg
Procedure: (§1) Finally, to examine how NO influences ALDH1A1 activity in vivo we placed BALB/c mice (female, 5-7 weeks old) on a high-fat diet for 40 weeks to induce an inflammatory response through elevated NO production. This period consists of a ˜20-week priming period prior to inoculation of the animals with 4T1-Luc cells at the mammary fat pad. At this point, the mice were randomized into two groups. The treatment group was administered L-NMMA (50 mg/kg), whereas the control group received water via oral gavage for 20 days. The day after the final treatment, mice from both conditions were treated systemically with AlDeLuc, and the bioluminescence was monitored (FIG. 5e). […] At the completion of the diet study, animals were sacrificed, and their tumors were excised for further immunohistochemical analysis.
Generation of an Orthotopic 4T1-Luc Breast Cancer Model for Diet Studies. Female BALB/c mice (˜6 weeks old) were inoculated with 4T1-Luc cells (50 μL of 1×10^5 cells in 1:1 v/v serum-free RPMI 1640 media and Matrigel) via subcutaneous injections into the mammary fat pad. Tumor volumes were measured using the caliper method every three days. Body weight was measured daily over the course of the experiment.

[7] = system: ALDH1A1 activity in 4T1 cells; assay: Influence of L-NMMA on ALDH1A1 activity in 4T1 cells using AlDeLuc; type: cell-based, murine; conditions: L-NMMA 1 mM; AlDeLuc 50 μM
Procedure: Influence of L-NMMA on ALDH1A1 activity in 4T1 Cells Using AlDeLuc. 4T1 cells were cultured in T75 culture flasks. After two days, cells had become ˜90% confluent. The media was aspirated and 9 mL of fresh media was added. The flasks were then treated with L-NMMA (1 mM, cell culture water) or vehicle (cell culture water). After incubation for 60 minutes, the solutions were aspirated, washed with PBS, and resuspended in fresh RPMI 1640 media (9 mL). AlDeLuc was added to each flask (50 M, 5% v/v DMSO:PBS) for a final concentration of 0.5% DMSO per flask. After 60 minutes this solution was aspirated, washed with fresh PBS, and detached from the culture flasks. The cells were then transferred to a 15 mL centrifuge tube and pelleted at 1000 rpm for 5 minutes at room temp. The cells were resuspended in PBS along with 10% protease inhibitor solution (1 protease inhibitor mini tablet per 10 mL of PBS, Pierce, Thermo Fisher Scientific) and sonicated on ice for 2.5 minutes (pulse 01, 01, 40%). The cell debris was removed via centrifugation and the supernatant was plated (95 L/well) into a 96-well plate (n=4 for each condition). Each well was treated with luciferase (5 μL, 1 mg/mL) and immediately imaged using the IVIS imaging system in open mode. ROIs were drawn around each well and the signal intensity was quantified using the Living Image Analysis software.

[8] = system: iNOS; assay: Immunohistochemical analysis of excised 4T1-Luc tumors; type: in vivo, BALB/c mice; conditions: L-NMMA 50 mg/kg versus vehicle; high-fat diet
From the text: as §1, with “Diet-Induced Inflammation Modulates ALDH1A1 Activity in a Murine Model of Breast Cancer. Finally,” for “Finally,”, “analysis. Specifically, we determined that iNOS expression in tumors treated with L-NMMA was reduced. […] That is, reducing the levels of NO has the effect of increasing ALDH1A1 activity (as determined with AlDeLuc), as well as overall protein expression levels (FIG. 5h).” for “analysis.”

[9] = system: ALDH1A1; assay: as above; type: in vivo, BALB/c mice; conditions: L-NMMA 50 mg/kg versus vehicle; high-fat diet; opposite to reduced iNOS
Procedure: as §1

## CCN(CC)c1ccc(C=O)cc1 [DEAB, diethylaminobenzaldehyde]
[1]; DEAB 93 mg/kg, AlDeLuc 0.55 mg/kg
  difference in total luminescent counts, AlDeLuc alone versus DEAB co-treated: 2.8 fold
[1]; co-treated DEAB 93 mg/kg and AlDeLuc 0.55 mg/kg, 40 min
  total luminescent counts: 0.78±0.28×10^4
[2]
  diminished bioluminescent signal relative to uninhibited cells: approximately 5 fold

## IFN-γ: interferon gamma, shown to stimulate NO production via inducible nitric oxide synthase
[3]
  bioluminescence signal lower relative to vehicle-treated control cells: 3.2 fold

## NCCN(CCN)/[N+]([O-])=N/O [DETA NONOate]
[4]
  bioluminescence decreased: 1.3 fold

## CCN(CC)/[N+]([O-])=N/O.CCNCC [DEA NONOate]
[5]; DEA NONOate 50 μM
  intracellular levels of NO: increasing

## CNC(=N)NCCC[C@H](N)C(=O)O [L-NMMA]
[6]
  enhancement in total luminescent counts compared to control group: 5.9 fold
[6]; 40 min
  total luminescent counts: 9.9±2.7×10^4
[7]
  bioluminescence higher compared to vehicle-treated cells: 2.4 fold
[5]; L-NMMA 1 mM
  intracellular levels of NO: decreasing
[8]
  iNOS expression in tumors: reduced
[9]
  ALDH1A1 expression in tumors: opposite trend
